Data: patent publication US20040248769A1, “Enzyme inhibitors for inactivating allergens” (priority 2001, published 2004)
*1 amine or outer side, *2 acyl side, *3 side chain or, on linkers, in order; H or OH if unused. Where a SMILES comes first, the peptide text is derived from it. [ ]: non-standard residue; d: D form. The star is where a group is joined. AMC = Cc1cc(=O)oc2cc(N*)ccc12; pGlu = O=C1CC[C@@H](C(=O)O)N1; Suc = O=C(CCC(=O)[*:2])[*:1]; CH2Cl = ClC*

Legend:
Assay type in all cases: biochemical, cat
[1] = tested on: Cat1 S1 fur extract proteolytic activity; test: Proteolytic activity of fur extract against NHMec substrates; settings: sample Cat1 S1, 5 μM substrate, 37° C., pH 7.5
Procedure: (§1) A clean pet brush was used to brush three common English domestic cats. Fur from guinea pigs, rabbit, dogs and horse was collected in the same way. A different brush was used for each species and between brushings these were cleaned thoroughly in a denaturing detergent solution (Fairy® detergent) and then ethanol. The brushings were transferred to a sterile universal container and extracted by shaking in an extraction buffer, 50 mM Tris.HCl, 5 mM CaCl2, pH 7.5 (0.1 g/ml). The solution was recovered by centrifugation and stored at −20° C. in aliquots. Saliva was collected from a mastiff-type dog and stored frozen in aliquots until assayed. Sample aliquots were assayed for proteolytic activity using fluorometric blocked peptidylaminomethylcoumarylamide substrates in the cuvette of a Perkin Elmer fluorimeter at 37° C. The fluorimeter was standardised with a known concentration of methylcoumarin, and the assays were designed so that no more than 10% substrate hydrolysis occurred.
(§2) Assays were performed in assay buffer; 50 mM Tris.HCl, 5 mM CaCl2, 0.1% CHAPS, pH 7.5. Data were collected in real-time on a personal computer using the Flusys software package.
(§3) In the first series of experiments the sample (12 μl) was assayed against a range of serine and cysteine proteinase aminomethylcoumarylamide (NHMec) substrates (obtained commercially from Bachem) under standard conditions of 5 μM substrate concentration (from a 100-fold stock solution in dimethyl sulfoxide) to give a final volume of 120 μl. After addition of substrate the rate without sample was determined (which in all cases was zero), after which the sample was applied and the progress of the reaction was followed for a further 15 min. The slope obtained (fluorescence vs time) was analysed by linear regression and converted to rate of product formation (nM/min) see results table 2.

[2] = tested on: Cat2 S1 fur extract proteolytic activity; test: as above; settings: sample Cat2 S1, 5 μM substrate, 37° C., pH 7.5
Procedure: as §1, §2, §3

[3] = tested on: Cat1 S3 fur extract proteolytic activity; test: Inhibition of the proteolytic activity in animal fur by proteinase inhibitors; settings: Cat1 S3, 10 μM inhibitor, substrate 1 Z-Gly-Gly-Arg-NHMec
Procedure: […] The assay was begun with substrate and sample and a continuous rate of product formation (nM/min) was measured (v0) for 15 min. The inhibitor was added to a final concentration of 10 μM in negligible volume from stock solution in dimethyl sulfoxide. The assay was continued for a further 15 min.
(§4) Under these conditions reversible inhibition can be measured as the new steady state (v1) with percentage inhibition being 1−(v1/v0)×100. Irreversible inhibition is measured as a second order rate constant and is time dependent but as long as the inhibitor is present in molar excess should always lead eventually to total inhibition. No distinction was made and inhibition is presented as a percentage of full activity. See results table 4.

[4] = tested on: Cat1 S3 fur extract proteolytic activity; test: Determination of Ki for the inhibition of Cat1 S3 by leupeptin; design: V1: unit not given beside the values
Procedure: The assays were carried out as described above, using 5 μM Z-Gly-Gly-Arg-NHMec as substrate in assay buffer. The assay was begun with substrate and sample and a continuous rate of product formation (nM/min) was measured (v0) for 15 min. […] The assay was continued for a further 15 min.
as §4

Row | Compound | Rate [1] | Rate [2] | % Inhibition [3] | v1 (rate after inhibitor) [3] | other results
1 | Cc1cc(=O)oc2cc(NC(=O)[C@@H](NC(=O)[C@@H]3CCCN3C(=O)[C@H](C)NC(=O)[C@H](C)NC(=O)CCC(=O)O)C(C)C)ccc12 [Suc-Ala-Ala-Pro-Val-NHMec] (Suc-AAPV-{AMC}) | No activity | No activity | – | – | –
2 | Cc1cc(=O)oc2cc(NC(=O)[C@H](C)NC(=O)[C@H](C)NC(=O)[C@H](C)NC(=O)CCC(=O)O)ccc12 [Suc-Ala-Ala-Ala-NHMec] | No activity | No activity | – | – | –
3 | Cc1cc(=O)oc2cc(NC(=O)[C@H](Cc3ccccc3)NC(=O)[C@@H]3CCCN3C(=O)[C@H](C)NC(=O)[C@H](C)NC(=O)CCC(=O)O)ccc12 [Suc-Ala-Ala-Pro-Phe-NHMec] (Suc-AAPF-{AMC}) | 0.04 nM/min | 0.05 nM/min | – | – | –
4 | CC(=O)N[C@@H](CC(C)C)C(=O)N[C@@H](CC(C)C)C(=O)N[C@H](C=O)CCCNC(=N)N [Leupeptin, acetyl-Leu-Leu-Arg-CHO] | – | – | 100% | 0 nM/min | % Inhibition ([4]; Cat1 S3, [I] 0.5 nM): 25.0%; V1 ([4]; Cat1 S3, [I] 0.5 nM): 6.0; % Inhibition ([4]; Cat1 S3, [I] 1.0 nM): 24.3%; V1 ([4]; Cat1 S3, [I] 1.0 nM): 5.6; % Inhibition ([4]; Cat1 S3, [I] 5.0 nM): 37.9%; V1 ([4]; Cat1 S3, [I] 5.0 nM): 4.9; % Inhibition ([4]; Cat1 S3, [I] 10.0 nM): 53.2%; V1 ([4]; Cat1 S3, [I] 10.0 nM): 4.4; % Inhibition ([4]; Cat1 S3, [I] 50.0 nM): 68.7%; V1 ([4]; Cat1 S3, [I] 50.0 nM): 2.6; % Inhibition ([4]; Cat1 S3, [I] 100.0 nM): 78.0%; V1 ([4]; Cat1 S3, [I] 100.0 nM): 1.8; Ki ([4]; found using the Enzfitter software package, read-out: Kl for the inhibition of Cat1 S3): 2.64 nM
5 | Aprotinin | – | – | 89.6% | 0.292 nM/min | –
6 | Cc1cc(=O)oc2cc(NC(=O)[C@H](CCCN=C(N)N)NC(=O)[C@H](CCCCN)NC(=O)[C@@H](NC(=O)[C@H](CCCN=C(N)N)NC(=O)[C@@H]3CCC(=O)N3)[C@@H](C)O)ccc12 [Pyr-Arg-Thr-Lys-Arg-NHMec] ([pGlu]RTKR-{AMC}) | 0.58 nM/min | 0.33 nM/min | – | – | –
7 | NC(N)=NCCC[C@H](NC(=O)CNC(=O)[C@@H](N)CCC(=O)O)C(=O)CCl [H-Glu-Gly-Arg-chloromethane] (H-Glu-Gly-Arg-CH2Cl) | – | – | 98.7% | 0.143 nM/min | –
8 | O=c1oc(Cl)c(Cl)c2ccccc12 [3,4-Dichloroisocoumarin] | – | – | 35.4% | 1.837 nM/min | –
